Columns and labels:
[1] = tested on: Silicibacter sp. strain TM1040; assay: Chemotaxis plate screening assay (change in motile colony morphology); type: cell-based; conditions: for Change in morphology with carbon source Alanine / Change in morphology with carbon source Glucose / Change in morphology with carbon source Glycerol / Change in morphology with carbon source Succinate: BM motility agar; for Change in morphology with carbon source Alanine: alanine as single carbon source; for Change in morphology with carbon source Glucose: glucose as single carbon source; for Change in morphology with carbon source Glycerol: glycerol as single carbon source; for Change in morphology with carbon source Succinate: succinate as single carbon source; on Change in morphology with carbon source Alanine: key: −: minus indicates no change compared to distilled water or no attractant controls; +: either one or two pluses indicates moderate to strong alteration in motile colony phenotype (respectively); ++: either one or two pluses indicates moderate to strong alteration in motile colony phenotype (respectively); on Change in morphology with carbon source Glucose: key: −: minus indicates no change compared to distilled water or no attractant controls; +: either one or two pluses indicates moderate to strong alteration in motile colony phenotype (respectively); ++: either one or two pluses indicates moderate to strong alteration in motile colony phenotype (respectively); on Change in morphology with carbon source Glycerol: key: −: minus indicates no change compared to distilled water or no attractant controls; +: either one or two pluses indicates moderate to strong alteration in motile colony phenotype (respectively); ++: either one or two pluses indicates moderate to strong alteration in motile colony phenotype (respectively); on Response: change in motile colony morphology of TM1040 in response to attractants, compared to the control: key: −: minus indicates no change compared to distilled water or no attractant controls; +: either one or two pluses indicates moderate to strong alteration in motile colony phenotype (respectively); ++: either one or two pluses indicates moderate to strong alteration in motile colony phenotype (respectively)
Method: Following 36 h of incubation, a putative attractant was placed approximately 5 cm from the site of inoculation (or 2.5 cm in front of the periphery of motile cells). Possible chemoattractant compounds were administered as either a sterile solid or concentrated stock solutions. The cells were further incubated for 16 h to allow for additional outward movement, at which time measurement of diameter, shape, and chemotaxis rings internal to the motile colony were made.
[…] Bacteria inoculated into the center of the agar consume nutrients and create a concentration gradient that increases outward from the point of inoculation. The bacteria sense the increasing gradient and swim outwards, seeking higher concentrations of nutrients, which is manifested as a symmetrical “motile” colony. If an attractant is placed at a short distance in front of the advancing motile colony, it forms a second gradient moving towards the oncoming cells that will affect the symmetry of the colony by reducing the net outward swimming of the bacteria.

[2] = tested on: Silicibacter sp. strain TM1040; assay: Quantitative capillary chemotaxis assay; type: cell-based; conditions: pure compounds, FIG. 12; capillaries filled with 2 μM or 200 μM attractant
Excerpt: The cells were pelleted by centrifugation at 4,000×g in a tabletop centrifuge (Centra-CL2; International Equipment Company), the supernatant was discarded, and the pellet was resuspended in chemotaxis buffer (CB) (15 g of ASW, 6 g of Tris-HCl per liter [pH 7.6]) to the same OD. Five hundred microliters of washed cells was placed in one of the wells of the Palleroni chamber, followed by a 1-μl capillary (Microcaps; Drummond) filled with a putative attractant diluted in CB. This process was repeated for each of the four wells in the chamber. A capillary filled with CB only was included in each experiment as a negative control. Depending on the experiment, capillaries remained in the chambers for 0.5 to 2 h, after which time they were removed, and the contents of each capillary were serially diluted in CB. Final dilutions were then spread on HIASW agar plates and incubated for 16 h at 30° C. The concentration of TM1040 in each capillary was derived by counting the CFU on each plate and multiplying by the appropriate dilution factor. […]

[3] = glucose background (BM glucose)

Row | Structure (SMILES) | Response: change in motile colony morphology of TM1040 in response to attractants, compared to the control ([1]; BM glycerol motility agar) | Change in morphology with carbon source Alanine [1] | Change in morphology with carbon source Glucose [1] | Change in morphology with carbon source Glycerol [1] | Change in morphology with carbon source Succinate [1] | chemotactic response of TM1040 in plate assay ([1]; BM glycerol motility agar) | response factor (mean) [2] | chemotactic response of TM1040 in plate assay [1, 3]
1 | O=C[C@H](O)[C@@H](O)[C@H](O)CO [xylose] | − |  |  |  |  |  |  | 
2 | N[C@@H](CS)C(=O)O [cysteine] | + |  |  |  |  |  |  | 
3 | C[S+](C)[O-] [DMSO, dimethyl sulfoxide] | − | − | − | − | − |  |  | 
4 | N[C@@H](CC(=O)O)C(=O)O [aspartic acid] | ++ |  |  |  |  |  |  | 
5 | NC(=O)C[C@H](N)C(=O)O [asparagine] | ++ |  |  |  |  |  |  | 
6 | O=C[C@@H](O)[C@H](O)[C@H](O)CO [arabinose] | − |  |  |  |  | no detectable change in the appearance of the motile colony |  | 
7 | N[C@@H](CO)C(=O)O [serine] | + |  |  |  |  |  |  | 
8 | O=C(O)CCS [MPA, 3-mercaptopropionate] | + |  |  |  |  | only weakly |  | 
9 | OC[C@H]1O[C@@H](O[C@H]2[C@H](O)[C@@H](O)C(O)O[C@@H]2CO)[C@H](O)[C@@H](O)[C@H]1O (some centres unmarked) [Lactose] | − | − | − | − | − |  |  | 
10 | CC(C)C[C@H](N)C(=O)O [leucine] | + |  |  |  |  |  |  | 
11 | O=C(O)CCC(=O)C(=O)O [Alpha-ketoglutarate] | − | − | − | − | + | no response | none were found to be significant chemoattractants | 
12 | C[C@@H](O)[C@H](N)C(=O)O [threonine] | ++ |  |  |  |  |  |  | 
13 | OCC(O)CO [glycerol] | + |  |  |  |  |  |  | 
14 | N[C@@H](Cc1c[nH]cn1)C(=O)O [histidine] | + |  |  |  |  |  |  | 
15 | O=C(O)/C=C/C(=O)O [fumurate] | ++ |  |  |  |  | strong positive response |  | 
16 | C[C@H](N)C(=O)O [Alanine] | ++ | − | − | ++ | + |  |  | 
17 | N[C@@H](Cc1ccccc1)C(=O)O [phenylalanine] | ++ |  |  |  |  |  |  | 
18 | N[C@@H](CCC(=O)O)C(=O)O [glutamic acid] | ++ | − | − | ++ | + |  |  | 

Row | Structure (SMILES) | Response: change in motile colony morphology of TM1040 in response to attractants, compared to the control ([1]; BM glycerol motility agar) | Change in morphology with carbon source Alanine [1] | Change in morphology with carbon source Glucose [1] | Change in morphology with carbon source Glycerol [1] | Change in morphology with carbon source Succinate [1] | chemotactic response of TM1040 in plate assay ([1]; BM glycerol motility agar) | response factor (mean) [2] | chemotactic response of TM1040 in plate assay [1, 3]
19 | CC[C@H](C)[C@H](N)C(=O)O [isoleucine] | + |  |  |  |  |  |  | 
20 | NCCCC[C@H](N)C(=O)O [lysine] | + | − | − | + | − |  | ca. 3.5 | 
21 | OC[C@H]1O[C@@](CO)(O[C@H]2O[C@H](CO)[C@@H](O)[C@H](O)[C@H]2O)[C@@H](O)[C@@H]1O [sucrose] | ++ |  |  |  |  | responded positively |  | 
22 | O=C[C@H](O)[C@@H](O)[C@@H](O)[C@H](O)CO [Galactose] | ++ | − | − | ++ | + | responded positively |  | 
23 | O=C(O)[C@@H]1CCCN1 [proline] | ++ |  |  |  |  |  |  | 
24 | O=C[C@H](O)[C@H](O)[C@H](O)CO [ribose] | − |  |  |  |  |  |  | 
25 | O=C(O)CC(O)(CC(=O)O)C(=O)O [Citrate] | ++ |  |  |  |  | strong positive response | none were found to be significant chemoattractants | 
26 | CC(=O)N[C@H]1C(O)O[C@H](CO)[C@@H](O)[C@@H]1O (some centres unmarked) [N-acetylglucosamine] | ++ | + | − | ++ | + | responded positively |  | 
27 | C=CC(=O)O [acrylate] | ++ | + | + | ++ | ++ | responded strongly |  | moderate response
28 | O=C(CO)[C@@H](O)[C@H](O)[C@H](O)CO [fructose] | − |  |  |  |  | no detectable change in the appearance of the motile colony |  | 
29 | N=C(N)NCCC[C@H](N)C(=O)O [arginine] | ++ |  |  |  |  |  |  | 
30 | OC[C@H]1O[C@H](O[C@H]2[C@H](O)[C@@H](O)[C@H](O)O[C@@H]2CO)[C@H](O)[C@@H](O)[C@@H]1O [maltose] | + | ++ | − | + | ++ | responded positively |  | 
31 | C[C@H](O)[C@@H](O)[C@@H](O)[C@H](O)C=O [fucose] | − |  |  |  |  |  |  | 
32 | N[C@@H](Cc1ccc(O)cc1)C(=O)O [tyrosine] | + |  |  |  |  |  |  | 
33 | NCC(=O)O [Glycine] | + |  |  |  |  |  | ca. 3.5 | 
34 | N[C@@H](Cc1c[nH]c2ccccc12)C(=O)O [tryptophan] | + |  |  |  |  |  |  | 
35 | O=C(O)CCC(=O)O [Succinate] | + | ++ | + | + | − | mild response | none were found to be significant chemoattractants | moderate response

— patent publication US20090142429A1, “SILICIBACTER SP. STRAIN USEFUL FOR GENETIC TRANSFORMATION OF MARINE ALGAE AND PRODUCTION OF ANTIBIOTIC AGENTS” (UNIVERSITY OF MARYLAND BIOTECHNOLOGY INSTITUTE, priority 2005, published 2009)
